Laboratory results from US6579967B1, “Receptor-selective somatostatin analogs” (The Salk Institute for Biological Studies, priority 1999, dated 2003).
“Also recorded” adds a separate entry of the source. Like-named read-outs stand apart in the source and are kept apart here.

Experiments:
Format in all cases: binding
[1] = biological target: T1, human SSTR1 (Homo sapiens, UniProt P30872); test: Displacement of 125I-[Leu8,D-Trp22,Tyr25]-somatostatin-28 from cloned SSTR1 (receptor autoradiography on membrane pellets)
T1 construct: expressed in transfected cells; host or cells: CHO-K1 cells and CCL39 cells
Procedure: (§1) Generally, recombinant cells expressing the receptor are washed and homogenized to prepare a crude protein homogenate in a suitable buffer, as known in the art. In a typical assay, an amount of protein from the cell homogenate is placed into a small volume of an appropriate assay buffer at an appropriate pH. Candidate substances, such as potential SRIF agonists and antagonists, are added to the admixture in convenient concentrations, and the interaction between the candidate substance and the receptor polypeptide is monitored.
(§2) Receptor binding assays are performed on cloned SRIF receptors as generally set forth in Raynor et al. supra. Using such assays, one can generate KD values which are indicative of the concentration of a ligand necessary to occupy one-half (50%) of the binding sites on a selected amount of a receptor or the like, or alternatively, competitive assays can generate IC50 values which are indicative of the concentration of a competitive ligand necessary to displace a saturation concentration of a target ligand being measured from 50% of binding sites.
(§3) In vitro Bioassay: The various somatostatin analogs are tested in vitro for their ability to bind to isolated cloned receptors expressed on CHO-K1 cells and CCL39 cells. CHO-K1 cells are grown in Ham's F-12 medium, and CCL39 cells are grown in Dulbecco's modified Eagle's medium/Ham's F-12(1:1) mix, supplemented with 10% fetal bovine serum, 100 U/ml penicillin and 100 μg/ml streptomycin, in humidified air containing 5% CO2 at 37° C.
(§4) Cells are washed twice with and scraped into ice-cold 0.05 M Tris-HCl (pH 7.4), collected by centrifugation, and homogenized using a rotor/stator slash system in the same buffer. After centrifugation at 120 g for 5 min. at 4° C., the supernatant is collected and centrifuged again at 48,000 g for 30 min. at 4° C. The resulting pellet is resuspended in ice-cold Tris buffer, transferred into a microfuge tube, and centrifuged at 20,000 g for 15 min. at 4° C. After withdrawal of the supernatant, the membrane pellet is stored at −80° C.
(§5) Receptor autoradiography is performed on 20 μm thick cryostat sections of the membrane pellets, mounted on microscope slides, and then stored at −20° C. […] […] Unlabeled somatostatin-28 is run in parallel using the same increasing concentrations, as a control. IC50 values are calculated after quantification of the data using a computer-assisted image processing system as known in this art.

[2] = biological target: T2, human SSTR2 (Homo sapiens, UniProt P30874); test: Displacement of 125I-[Leu8,D-Trp22,Tyr25]-somatostatin-28 from cloned SSTR2 (receptor autoradiography on membrane pellets)
T2 construct: expressed in transfected cells; host or cells: CHO-K1 cells and CCL39 cells
Procedure: as §1, §2, §3, §4, §5

[3] = biological target: T3, human SSTR3 (Homo sapiens, UniProt P32745); test: Displacement of 125I-[Leu8,D-Trp22,Tyr25]-somatostatin-28 from cloned SSTR3 (receptor autoradiography on membrane pellets); conditions: for binding strength and selectivity for SSTR3, in words: qualitative statement
T3 construct: expressed in transfected cells; host or cells: CHO-K1 cells and CCL39 cells
Procedure: as §1
as §2, with “sites. The peptide des-AA^1,2,4,5,12,13-[D-Agl^8(Me,2-naphthoyl)]SRIF inhibits the binding to SSTR3 of an iodinated SRIF-28 ligand that has strong affinity for all five receptors.” for “sites.”
as §3, §4
(§6) Receptor autoradiography is performed on 20 μm thick cryostat sections of the membrane pellets, mounted on microscope slides, and then stored at −20° C. For each of the tested compounds, complete displacement experiments are performed with the universal somatostatin ligand radioligand ^125I-[Leu^8,D-Trp^22,Tyr^25]-somatostatin-28 that binds with strong affinity to all five receptors. Increasing concentrations of the unlabeled peptide are used ranging from 0.1-1000 nM. Unlabeled somatostatin-28 is run in parallel using the same increasing concentrations, as a control. IC50 values are calculated after quantification of the data using a computer-assisted image processing system as known in this art.
(§7) The potencies of certain SRIF analogs to inhibit radioligand binding of ^125I-[Leu^8,D-Trp^22,[…]]SRIF-28 to the various cloned SRIF receptors are shown in the following table wherein the IC50 values are given in nanomolar concentration.

[4] = biological target: T4, human SSTR4 (Homo sapiens, UniProt P31391); test: Displacement of 125I-[Leu8,D-Trp22,Tyr25]-somatostatin-28 from cloned SSTR4 (receptor autoradiography on membrane pellets)
T4 construct: expressed in transfected cells; host or cells: CHO-K1 cells and CCL39 cells
Procedure: as §1, §2, §3, §4, §5

[5] = biological target: T5, human SSTR5 (Homo sapiens, UniProt P35346); test: Displacement of 125I-[Leu8,D-Trp22,Tyr25]-somatostatin-28 from cloned SSTR5 (receptor autoradiography on membrane pellets)
T5 construct: expressed in transfected cells; host or cells: CHO-K1 cells and CCL39 cells
Procedure: as §1
as §2, with “sites. The peptide des-AA^1,2,4,5,12,13-[D-Agl^8(Me,2-naphthoyl)]SRIF inhibits the binding to SSTR3 of an iodinated SRIF-28 ligand that has strong affinity for all five receptors.” for “sites.”
as §3, §4
as §6, with “Increasing concentrations of the unlabeled peptide are used ranging from 0.1-1000 nM.” left out
as §7

[6] = biological target: T3, human SSTR3; test: Displacement of 125I-[Leu8,D-Trp22,Tyr25]-somatostatin-28 from cloned SSTR3 (receptor autoradiography on membrane pellets); conditions: 125I-labelled Tyr2 analog tested as radioligand on cloned receptor
[7] = biological target: T5, human SSTR5; test: Displacement of 125I-[Leu8,D-Trp22,Tyr25]-somatostatin-28 from cloned SSTR5 (receptor autoradiography on membrane pellets); conditions: 125I-labelled Tyr2 analog tested as radioligand on cloned receptor
[8] = inhibition of 125I-[Leu8,D-Trp22,Tyr24]SRIF-28 binding, cloned receptor, read-out: IC50 (nM) mSSTR1
[9] = inhibition of 125I-[Leu8,D-Trp22,Tyr24]SRIF-28 binding, cloned receptor, read-out: IC50 (nM) mSSTR2
[10] = inhibition of 125I-[Leu8,D-Trp22,Tyr24]SRIF-28 binding, cloned receptor, read-out: IC50 (nM) mSSTR3
[11] = inhibition of 125I-[Leu8,D-Trp22,Tyr24]SRIF-28 binding, cloned receptor, read-out: IC50 (nM) mSSTR4
[12] = inhibition of 125I-[Leu8,D-Trp22,Tyr24]SRIF-28 binding, cloned receptor, read-out: IC50 (nM) mSSTR5

T4 sequence (P31391 whole entry): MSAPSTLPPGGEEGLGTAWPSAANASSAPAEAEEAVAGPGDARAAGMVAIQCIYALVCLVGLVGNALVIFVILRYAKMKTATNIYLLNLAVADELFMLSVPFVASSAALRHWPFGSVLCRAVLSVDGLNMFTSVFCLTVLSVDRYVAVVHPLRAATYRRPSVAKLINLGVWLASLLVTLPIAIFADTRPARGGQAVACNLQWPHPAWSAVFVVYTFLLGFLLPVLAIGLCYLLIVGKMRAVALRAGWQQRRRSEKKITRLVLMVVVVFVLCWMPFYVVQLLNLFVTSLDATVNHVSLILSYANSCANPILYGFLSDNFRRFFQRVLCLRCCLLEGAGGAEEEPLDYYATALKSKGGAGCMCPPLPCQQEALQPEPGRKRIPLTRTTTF
T3 sequence (P32745 whole entry): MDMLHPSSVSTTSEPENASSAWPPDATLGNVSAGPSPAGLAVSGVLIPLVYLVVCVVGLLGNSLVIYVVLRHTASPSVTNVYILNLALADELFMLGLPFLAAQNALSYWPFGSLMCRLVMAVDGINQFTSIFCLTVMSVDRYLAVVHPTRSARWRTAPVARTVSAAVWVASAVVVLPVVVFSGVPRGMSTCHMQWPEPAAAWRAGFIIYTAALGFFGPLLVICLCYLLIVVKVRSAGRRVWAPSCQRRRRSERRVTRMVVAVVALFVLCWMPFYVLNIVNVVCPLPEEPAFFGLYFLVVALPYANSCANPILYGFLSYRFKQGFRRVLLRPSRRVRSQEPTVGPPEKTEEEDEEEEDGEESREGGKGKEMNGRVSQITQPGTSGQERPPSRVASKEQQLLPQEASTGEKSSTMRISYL
T1 sequence (P30872 whole entry): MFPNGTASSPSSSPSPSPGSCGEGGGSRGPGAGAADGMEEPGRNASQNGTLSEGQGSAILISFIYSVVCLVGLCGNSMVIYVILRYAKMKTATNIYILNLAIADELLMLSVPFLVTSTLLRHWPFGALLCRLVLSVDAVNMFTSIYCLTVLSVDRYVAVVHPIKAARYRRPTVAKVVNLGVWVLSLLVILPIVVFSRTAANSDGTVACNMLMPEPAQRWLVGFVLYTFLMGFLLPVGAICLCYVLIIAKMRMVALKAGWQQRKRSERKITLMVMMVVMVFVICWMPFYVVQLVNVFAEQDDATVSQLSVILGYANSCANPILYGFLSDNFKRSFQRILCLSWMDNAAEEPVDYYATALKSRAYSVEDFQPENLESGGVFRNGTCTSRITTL
T5 sequence (P35346 whole entry): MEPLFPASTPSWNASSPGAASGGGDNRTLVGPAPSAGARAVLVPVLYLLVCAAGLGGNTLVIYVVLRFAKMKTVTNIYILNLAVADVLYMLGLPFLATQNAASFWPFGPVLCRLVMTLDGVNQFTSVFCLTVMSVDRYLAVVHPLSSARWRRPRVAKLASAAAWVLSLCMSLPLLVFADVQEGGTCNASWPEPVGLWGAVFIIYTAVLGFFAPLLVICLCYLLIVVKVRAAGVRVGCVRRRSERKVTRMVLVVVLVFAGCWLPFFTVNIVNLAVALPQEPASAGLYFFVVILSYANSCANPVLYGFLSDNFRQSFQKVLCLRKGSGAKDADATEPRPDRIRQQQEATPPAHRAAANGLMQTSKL
T2 sequence (P30874 whole entry): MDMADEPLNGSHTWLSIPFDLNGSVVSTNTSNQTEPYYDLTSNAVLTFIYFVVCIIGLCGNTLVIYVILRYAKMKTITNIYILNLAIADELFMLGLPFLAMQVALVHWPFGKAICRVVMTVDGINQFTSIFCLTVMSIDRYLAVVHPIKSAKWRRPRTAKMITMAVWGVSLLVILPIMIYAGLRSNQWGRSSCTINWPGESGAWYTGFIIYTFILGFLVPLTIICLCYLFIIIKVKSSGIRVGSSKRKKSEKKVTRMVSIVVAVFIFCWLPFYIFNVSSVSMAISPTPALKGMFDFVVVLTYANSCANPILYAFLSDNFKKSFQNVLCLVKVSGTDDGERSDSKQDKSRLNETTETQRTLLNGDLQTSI

C[C@@H](O)[C@@H]1NC(=O)[C@H](CCCCN)NC(=O)[C@@H](N(C)C(=O)c2ccc3ccccc3c2)NC(=O)[C@H](Cc2ccc(O)cc2)NC(=O)[C@H](Cc2ccccc2)NC(=O)[C@H](NC(N)=O)CSSC[C@@H](C(=O)O)NC(=O)[C@H](Cc2ccccc2)NC1=O [Peptide No. 2F, (cyclo 3-14)Cbm-D-Cys-Phe-Tyr-D-Agl(Me,2Np)-Lys-Thr-Phe-Cys-OH]
IC50 [1, 8]: > 10000 nM | IC50 [2, 9]: > 10000 nM | relative potency at SSTR3 by comparison to SRIF-28 ([3]; binding affinity relative to SRIF-28 (=1)): about 1.4 | IC50 [3, 10]: 6.7 ± 2.6 nM | binding strength and selectivity for SSTR3, in words ([3]; listed as Peptide 2F): bind strongly and selectively to SSTR3; also recorded: binding strength essentially equal to that of SRIF-28 | IC50 [4, 11]: > 10000 nM | IC50 [5, 12]: > 10000 nM

C[C@@H](O)[C@@H]1NC(=O)[C@H](CCCCN)NC(=O)[C@@H](Cc2ccc3ccccc3c2)NC(=O)[C@H](N(C)C(=O)c2ccccc2)NC(=O)[C@H](Cc2ccccc2)NC(=O)[C@@H](N)CSSC[C@@H](C(=O)O)NC(=O)[C@H](Cc2ccccc2)NC1=O [Peptide No. 3, (cyclo 3-14)H-Cys-Phe-Agl(Me,Bz)-D-2Nal-Lys-Thr-Phe-Cys-OH]
IC50 [1, 8]: > 10000 nM | IC50 ([1]; iodinated SRIF-28 ligand, cloned human receptor, read-out: concentration below which no binding to human SSTR1): > 1000 nM | IC50 [2, 9]: > 1000 nM | IC50 ([2]; iodinated SRIF-28 ligand, cloned human receptor, read-out: concentration below which no binding to human SSTR2): > 1000 nM | IC50 [3, 10]: 80 nM | IC50 ([3]; iodinated SRIF-28 ligand, cloned human receptor, read-out: IC50 at cloned human SSTR3): ~80 nM | binding strength and selectivity for SSTR3, in words [3]: bind selectively to SSTR3; also recorded: selectively binds SSTR3 | IC50 [4, 11]: > 1000 nM | IC50 ([4]; iodinated SRIF-28 ligand, cloned human receptor, read-out: concentration below which no binding to human SSTR4): > 1000 nM | IC50 [5, 12]: > 1000 nM | IC50 ([5]; iodinated SRIF-28 ligand, cloned human receptor, read-out: concentration below which no binding to human SSTR5): > 1000 nM

(cyclo)H-Tyr-Cys-Phe-Phe-D-Agl(Me,2Np)-Lys-Thr-Phe-Cys-OH [Peptide No. 4]
binding of the radioiodinated analog to SSTR3 [6]: continues to bind strongly to SSTR3; also recorded: effectively binds to SSTR3 to about the same extent as Peptide No. 2B | binding of the radioiodinated analog to SSTR5 [7]: No specific binding
